“Also recorded” adds a separate entry of the source.
Legend:
IFN-γ = assay: Serum cytokine production after i.p. lipid injection (multiplex analysis); assay type: in vivo, mice; conditions: bled 3, 6, 12 and 24 h, FIG. 7
Protocol: Mice were injected i.p. with lipids and bled 3, 6, 12 and 24 h after injection. The cytokine production in the serum was determined by multiplex analysis.

[1] = tested on: DN32.D3 type I NKT hybridoma; assay: In vitro stimulation of type I NKT hybridoma with lipid-loaded plate-coated CD1d monomers, IL-2 ELISA; assay type: cell-based, murine; conditions: 24 h; for DN32 activation (IL-2 production): 0.5 μg plate-coated CD1d monomers loaded with 4 μM sulfatide or analogues, 10 nM α-GalCer or β-GalCer; for level of activation (amount of IL-2 produced) of DN32.D3, compared with reference lipids: CD1d monomers loaded with 4 μM lipid
Protocol: The hybridoma cell line DN32.D3 created by Brutkiewicz et al. (R. R. Brutkiewicz et al., J. Experimental Medicine, 183: 1913-1919 (1995)) that express the TCR semi-invariant α-chain Vα14Jα18 associated with the Vβ8.2Jβ2.4 chain was used.
(§1) CD monomers were loaded as described above. Flat bottom 96 well plates were coated overnight with 0.5 μg of CD1d monomers loaded with 4 μM of sulfatide or sulfatide-analogues, 10 nM of α-GalCer or with 10 ng/ml of anti-CD3 antibody (Biolegend, San Diego, CA) dissolved in PBS. Plates were then washed in PBS and complete medium. 50×10^3 hybridoma cells in 200 μl of complete medium were plated in presence or not of anti-CD1d blocking antibody 20H2.
(§2) Cells were cultured for 24 h at 37° C., 5% CO2. The production of IL-2 was measured by ELISA from the culture supernatant according to the recommendations of the manufacturer.
(§3) Therefore, well-described type I and type II NKT hybridoma cell lines were used in this experiment. The type I NKT hybridoma DN32.D3 expresses the murine semi-invariant TCR Vα14Jα18 associated with the Vβ8.2/Jβ2.4 chain (Brutkiewicz et al.) and is specific for α-GalCer.

[2] = tested on: XV19 type II NKT hybridoma; assay: In vitro stimulation of type II NKT hybridoma with lipid-loaded plate-coated CD1d monomers, IL-2 ELISA; assay type: cell-based, mouse; conditions: 24 h, 0.5 μg plate-coated CD1d monomers loaded with 4 μM sulfatide or analogues, 10 nM α-GalCer or β-GalCer
Protocol: The hybridoma XV19 was created by Cardell, S. et al. (J. Experimental Medicine, 182: 993-1004 (1995)) and was provided by Susanna Cardell.
as §1, §2, §3

[3] = tested on: CT26 (colon cancer) cells; assay: CT26 lung metastasis model, lung nodule count; assay type: in vivo, BALB/c mice; conditions: for number of lung nodules: same day 33 nmol sulfatide or analogues or 500 pmol α-GalCer i.p., counted 8 to 12 days, compared to vehicle, FIG. 5
Protocol: 200 μg of sulfatide of sulfatide-analogues dry powder were resuspended with 40 μl of PBS-Tween20-0.05% and warm at 37° C. for 10 min. Then, 697 μl of DPBS were added to obtain a concentration of 300 μg/ml of lipid. Mice received an i.p injection of 100 μl of sulfatide or analogue mix that is equivalent to […] of lipid. A solution of 500 μM of α-GalCer in DPBS-tween20-0.05% was thawed and sonicated at 60° C. for 2 min and a solution at 10 μM was prepared in DPBS. Mice were injected i.p. with […] (100 μl) of α-GalCer solution.
The CT26 cell were cultured in tumor medium: RPMI 1640 (Life technologies) supplemented with 10% heat inactivated fetal calf serum, 2 mM L-Glutamine, penicillin, streptomycin, 10 mM HEPES, 1/100 vol non-essential amino acids, and 1 mM sodium pyruvate 1/1000 of β-mercaptoethanol. Cells were harvested at 80-85% confluence, detached from plastic with trypsin treatment and resuspended at 5×10^6 cell/ml in DPBS. Mice were injected i.v in the tail vein with 0.5×10^6 CT26 cells (100 μl). The same day, mice were injected i.p. with […] of sulfatide or sulfatide analogues, or 10 nmol of α-GalCer.
WT BALB/c mice were injected intravenously (i.v.) with 0.5×10^6 CT26 (colon cancer) and treated the same day with 33 nmol of sulfatide or sulfatide-analogues or 500 pmol of α-GalCer injected i.p. Lung nodules were counted 8 to 12 days after tumor inoculation according to the results in the monitoring mice. n=10 from 2 independent experiments. The results are shown graphically in FIG. 5.
WT BALB/c mice were inoculated i.v. with 5×10^5 CT26 cells and treated i.p. with 30, 5 or 0.5 nmol of sulfatide or C24:2. The number of nodules in the lung was determined 8 to 12 days after injection.
WT BALB/c mice were injected i.v. with 0.5×10^6 CT26 (colon cancer cells) and treated the same day with […] of sulfatide or C24:2 or 500 pmol of α-GalCer injected i.p. Mice were injected i.p with 200 μg/ml of anti-IFNγ or rat IgG isotype control on day 0, day 1, day 2, day 3, and day 5. Lung nodules were counted 8 to 12 days after tumor inoculation according to the results in the monitoring mice. The results are shown in FIG. 8A (Rat IgG) and FIG. 8B (anti-IFN-γ).

lung mononuclear cells = assay: Ex vivo stimulation of lung mononuclear cells with lipid-pulsed BMDC, IL-13 ELISA; assay type: cell-based, BALB/c mice; conditions: BMDC pulsed with 33 μM lipid, 4 days, FIG. 3; for production of IL-13: ELISA of culture supernatant
Protocol: For the preparation of lung mononuclear cells, lungs were perfused with warm Dulbecco's Phosphate-Buffered Saline (DPBS) (Life Technologies, Frederick, MD) from the heart right ventricle. Single cell suspension was prepared with a Lung Dissociation Kit (Miltenyi Biotec, San Diego, CA) according to the manufacturer's protocol. Lung mononuclear cells (LMNC) were then purified from the cell suspension by a 40%/80% gradient of Percoll (Sigma-Aldrich, St-Louis, MO).
BMDC were prepared by collecting bone marrow cells from femurs and tibias of BALB/c mice in complete medium. Cells were suspended at the concentration of 0.2×10^6/ml in complete medium supplemented with 20 ng/ml of GM-CSF (Peprotech, Rocky Hill, NJ) and 2×10^6 cells were plated per Petri dish (Corning, Tewksbury, MA). Fresh medium supplemented with 20 ng/ml GM-CSF was added at day 3 and refreshed at day 6. At day 8 the cells were harvested, washed in complete medium and suspended at 0.4×10^6/ml in complete medium supplemented with 10 ng/ml of GM-CSF and 1 μg/ml of LPS (Sigma-Aldrich). 4×10^6 cells were plated per Petri dish for 24 h.
200 μg of sulfatide of sulfatide-analogues dry powder was dissolved in 100 μl of DPBS containing 0.5% Tween20 (PBS-Tween) (Avantor performance materials). BMDCs were washed and put at the concentration of 1×10^7/ml and incubated 3 h at 37° C. in presence of 30 μg/ml of sulfatide or sulfatide-analogues or the same volume of PBS-Tween as vehicle control. After washing, 100×10^3 pulsed BMDCs were cultured with 0.5×10^6 lung mononuclear cells in complete medium in flat-bottom 96 well plates for 4 days at 37° C., 5% CO2. When indicated, 10 μg/ml of anti-CD1d antibody (20H2, Harlan, Indianapolis, IN) was added. Supernatants were harvested, and IL-13 production was determined by ELISA according to the recommendations of the manufacturer (eBioscience).
Lung mononuclear cells from WT BALB/c mice were stimulated for 4 days in presence of BMDC (bone marrow derived dendritic cells) pulsed with 33 μM of sulfatide, vehicle control, or 33 μM of the sulfatide analogues pC24:1, pC24:2, or C24:2 in presence or absence of the anti-CD1d blocking antibody 20H2 to confirm the dependency of the IL-13 production on CD1d. The production of IL-13 was measured by ELISA in the culture supernatant. The results are shown in FIG. 3 (n=4, duplicates from 2 independent experiments.

[4] = tested on: CT26 (colon cancer) cells; conditions: murine model of lung metastasis; Ambrosino et al. 2007; cited from earlier work

| Molecule | production of IFN-γ in the serum (IFN-γ) | DN32 activation (IL-2 production) [1] | XV19 activation (IL-2 production) [2] | protection from tumor nodules with anti-IFN-γ versus rat IgG isotype control ([3]; 0.5×10^6 CT26 i.v., 30 μmol i.p., anti-IFNγ or rat IgG i.p. on days 0, 1, 2, 3, 5, FIGS. 8A-8B) | number of lung nodules ([3]; 0.5×10^6 CT26 i.v.) | reduction of tumor nodules, dose study ([3]; 5×10^5 CT26 i.v., 30, 5 or 0.5 nmol i.p., result stated for 5 nmol, FIG. 6) | production of IL-13 (lung mononuclear cells) | production of IL-13 in presence of anti-CD1d blocking antibody 20H2 (lung mononuclear cells) | development of lung nodules (previously demonstrated) [4] | level of activation (amount of IL-2 produced) of DN32.D3, compared with reference lipids [1] |
| --- | --- | --- | --- | --- | --- | --- | --- | --- | --- | --- |
| CCCCC/C=C\C/C=C\CCCCCCCCCCCCCC(=O)N[C@@H](CO[C@@H]1O[C@H](CO)[C@H](O)[C@H](OS(=O)(=O)O)[C@H]1O)[C@H](O)/C=C/CCCCCCCCCCCCC [C24:2, (2S,3R,4E)-1-(3-O-Sodiumsulfonyl-β-D-galactopyranosyloxy)-2-(N-15Z,18Z-tetracosadienoylamino)octadec-4-en-3-ol] | induced a high production of IFN-γ | not DN32.D3; also recorded: not type I | activated only XV19; also recorded: activated only type II NKT cells | dependent on IFN-γ | significantly reduced the number of lung nodules; also recorded: induced a significant reduction of the number of lung nodules | efficient for the reduction of tumor nodules | induced a high production of IL-13 | abrogated | – | – |
| CCCCCCCC/C=C\CCCCCCCCCCCCCC(=O)N[C@@H](CO[C@H]1O[C@H](CO)[C@H](O)[C@H](OS(=O)(=O)O)[C@H]1O)[C@H](O)/C=C/CCCCCCCCCCCCC [Sulfatide C24:1, 3-o-sulfo-α-galactosylceramide, d18:1/C24:1, reference compound] | – | not | activated | – | increased the number of lung nodules | – | – | – | increased the development of nodules | – |
| CCCCC/C=C\C/C=C\CCCCCCCCCCCCCC(=O)N[C@@H](CO[C@@H]1O[C@H](CO)[C@H](O)[C@H](OS(=O)(=O)O)[C@H]1O)[C@H](O)[C@H](O)CCCCCCCCCCCCCC [pC24:2, (2S,3S,4R)-1-(3-O-Sodiumsulfonyl-β-D-galactopyranosyloxy)-2-(N-15Z,18Z-tetracosadienoylamino)octadecan-3,4-diol] | – | also activated DN32.D3 | activated XV19 | – | did not have any effect | – | induced a high production of IL-13 | abrogated | – | lower than that induced by α-GalCer and in the same range as the one induced by β-GalCer |
| CCCCCCCCCCCCCCCCCCCCCCCCCC(=O)N[C@@H](CO[C@H]1O[C@H](CO)[C@H](O)[C@H](O)[C@H]1O)[C@H](O)[C@H](O)CCCCCCCCCCCCCC [α-GalCer, α-galactosylceramide, reference compound] | – | activated | not | – | inhibited their development | – | – | – | abrogated it | – |
| (2S,3S,4R)-1-(3-O-Sodiumsulfonyl-β-D-galactopyranosyloxy)-2-(N-15Z-tetracosenoylamino)octadecane-3,4-diol [pC24:1] | – | also activated DN32.D3 | activated XV19 | – | did not have any effect | – | induced a high production of IL-13 | abrogated | – | lower than that induced by α-GalCer and in the same range as the one induced by β-GalCer |
| β-galactosylceramide [β-GalCer, reference compound] | – | activated | not | – | – | – | – | – | – | – |

Reference: patent publication US12268700B2, “3-o-sulfo-galactosylceramide analogs as activators of type II NKT cells and uses thereof” (The United States of America, as represented by the …, priority 2018, dated 2025)
